According to US20120039981A1, “Chewing Gum And Particulate Material For Controlled Release Of Active Ingredients” (priority 2009, published 2012):
Like-named read-outs stand apart in the source and are kept apart here.

Excerpt: Absorption of nicotine from the oral cavity to the systemic circulation is dependent on the pH of the saliva and the […] of nicotine, which is about 7.8. Assuming a pH of the saliva of 6.8 only about 10% of the nicotine in saliva will be in the free base form. Thus, in order to promote absorption of nicotine in a free base form, which is the form predomi-nantly absorbed through the mucosa, the pH of the saliva must be increased. At a pH of 8.8 about 90% of the nicotine in saliva will then be in the free base form.

CN1CCCC1c1cccnc1 (centres unmarked) [nicotine, 3-(1-methyl-2-pyrrolidinyl)-pyridine]
nicotine in saliva in the free base form (saliva pH 6.8): about 10% | nicotine in saliva in the free base form (saliva pH 8.8): about 90%
